Like-named read-outs stand apart in the source and are kept apart here.
Experiments:
[1] = biological target: T1, Keap1 (A321-C624) (h) (Homo sapiens, UniProt Q14145); test: Surface Plasmon Resonance binding assay to Kelch domain of KEAP1; settings: Biacore T200, 25° C., immobilized His-Thromb-KEAP1(A321-C624), single cycle kinetics, KD=kd/ka from 1:1 fit; read-out: Keap1 (A321-C624) (h) direct/SPR (KD)
T1 construct: His-Thromb-KEAP1(A321-C624) acquired from Novalix (batch PU-P01) was immobilized covalently by amine coupling; His tag (N); thrombin cleavage site (Thromb) (N); purchased Novalix batch PU-P01
Description: EXAMPLE 85: SURFACE PLASMON RESONANCE
Binding assay to Kelch domain of KEAP1 was performed by Surface Plasmon Resonance (SPR) on a Biacore T200 (GE Healthcare) at 25° C. using CM5 chip. His-Thromb-KEAP1(A321-C624) acquired from Novalix (batch PU-P01) was immobilized covalently by amine coupling using standard wizard protocol, at a concentration of 20 μg/mL in sodium acetate pH 5.5. The ligand was captured until 1250 RU was reached. Amine blank is used as the reference flow cell. Binding of analyte to the ligand was monitored in real time with associations of 180 seconds and a dissociation of 720 seconds. Association (ka) and dissociation (kd) rates were fitted with a simple 1:1 kinetic interaction model using Biacore T200 Evaluation Software (GE Healthcare). The equilibrium constant (KD=kd/ka) was calculated from these fitted parameters. […] The Biacore binding assay was performed with a flowrate of 50 μL/min using a running buffer of 10 mM HEPES (pH 7.4), 150 mM NaCl, 3 mM EDTA, 1 mM TCEP, 0.05% P20,5% DMSO. Double subtraction was used by subtracting both reference flow cell and previous blank cycle (with running buffer). Solvent correction was applied to correct DMSO bulk effect.

[2] = test system: Nrf2 (Keap1-NRF2 nuclear translocation); test: U2OS translocation assay (PathHunter U2OS Keap1-NRF2 Nuclear Translocation Cell Line); type: cell-based
Procedure, shortened: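 PathHunter U2OS line expressing Nrf2-enzyme-donor fusion and nuclear acceptor enzyme, 7 500 cells/well in Opti-MEM, 1% FBS. Compounds incubated 3 h at 37° C. Luminescence after 60 min with detection reagent, normalized between 1% DMSO and 10 μM andrographolide.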

[3] = Homo sapiens, U2OS, 3 h, read-out: CELLULAR U2OS EC50 (nM), U2OS Keap1-NRF2 nuclear translocation cells, 3 h incubation, luminescence, normalized between 1% DMSO and 10 μM andrographolide
[4] = read-out: CELLULAR U2OS EC50, U2OS Keap1-NRF2 nuclear translocation cells, 3 h incubation, luminescence, normalized between 1% DMSO and 10 μM andrographolide

T1 sequence (Q14145 321-624): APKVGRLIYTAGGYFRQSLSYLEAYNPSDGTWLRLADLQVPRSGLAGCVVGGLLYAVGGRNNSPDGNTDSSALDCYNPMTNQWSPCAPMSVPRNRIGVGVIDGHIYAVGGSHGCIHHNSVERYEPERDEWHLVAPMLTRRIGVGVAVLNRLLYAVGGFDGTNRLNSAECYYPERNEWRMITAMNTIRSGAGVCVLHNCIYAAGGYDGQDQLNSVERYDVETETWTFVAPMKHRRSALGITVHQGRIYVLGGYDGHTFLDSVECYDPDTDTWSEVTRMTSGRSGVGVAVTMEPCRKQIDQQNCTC

Compound	Kd [1]	EC50 [2, 3]	EC50 [2, 4]
Cc1ccc2cc1[C@@H](C)N1Cc3cc(ccc3OS1(=O)=O)OCCCOCCn1nnc3c(C)c(ccc31)[C@@H]2CC(=O)O [Example 27a, [(2R,8R)-2,4,33-Trimethyl-29,29-dioxo-19,23,28-trioxa-29λ^6-thia-1,14,15,16-tetraazahexacyclo[22.5.3.1^3,70.1^9,130.1^12,160.0^27,31]tetratriaconta-3(34),4,6,9(33),10,12,14,24,26,31-decaen-8-yl]acetic acid]	14.2 nM	93.1 nM	–
Cc1ccc2cc1[C@@H](C)N1Cc3cc(ccc3OS1(=O)=O)OCCCCCCn1nnc3c(C)c(ccc31)[C@@H]2CC(=O)O [Example 19a, [(2R,8R)-2,4,33-Trimethyl-29,29-dioxo-23,28-dioxa-29λ^6-thia-1,14,15,16-tetraazahexacyclo[22.5.3.1^3,70.1^9,130.0^12,160.0^27,31]tetratriaconta-3(34),4,6,9(33),10,12,14,24,26,31-decaen-8-yl]acetic acid]	1.34 nM	73.6 nM	–
Cc1ccc2cc1CN1Cc3cc(ccc3OS1(=O)=O)N(C)CCCCn1nnc3c(C)c(ccc31)C2CC(=O)O (stereo not shown) [Example 42, [4,21,31-Trimethyl-27,27-dioxo-26-oxa-27λ^6-thia-1,14,15,16,21-pentaazahexacyclo[20.5.3.1^3,70.1^9,130.0^12,160.0^25,29]dotriaconta-3(32),4,6,9(31),10,12,14,22,24,29-decaen-8-yl]acetic acid]	1.57 nM	21.4 nM	–
COc1cc2c3cc1OCCCCn1nnc4c(C)c(ccc41)C(CC(=O)O)c1ccc(C)c(c1)CN(C3)S(=O)(=O)O2 (single isomer, unassigned) [Example 25b, [23-Methoxy-4,31-dimethyl-27,27-dioxo-21,26-dioxa-27λ^6-thia-1,14,15,16-tetraazahexacyclo[20.5.3.1^3,70.1^9,130.0^12,160.0^25,29]dotriaconta-3(32),4,6,9(31),10,12,14,22,24,29-decaen-8-yl]acetic acid]	1.16 nM	–	56.8 nM
COc1ccc2cc1CN1Cc3cc(ccc3OS1(=O)=O)OCc1ccccc1SCCCCn1nnc3c(C)c(ccc31)C2CC(=O)O (single isomer, unassigned) [Example 54b]	391 nM	–	2270 nM
COc1c(Cl)cc2cc1CN1Cc3cc(ccc3OS1(=O)=O)OCCCCn1nnc3c(C)c(ccc31)C2CC(=O)O (single isomer, unassigned) [Example 37b, [5-Chloro-4-methoxy-31-methyl-27,27-dioxo-21,26-dioxa-27λ^6-thia-1,14,15,16-tetraazahexacyclo[20.5.3.1^3,70.1^9,130.0^12,160.0^25,29]dotriaconta-3(32),4,6,9(31),10,12,14,22,24,29-decaen-8-yl]acetic acid]	529 nM	–	> 3160 nM
COc1cc2cc(c1)C(CC(=O)O)c1ccc3c(nnn3CCCCOc3ccc4c(c3)CN(C2)S(=O)(=O)O4)c1C (single isomer, unassigned) [Example 8a, [5-Methoxy-31-methyl-27,27-dioxo-21,26-dioxa-27λ^6-thia-1,14,15,16-tetraazahexacyclo[20.5.3.1^3,70.1^9,130.0^12,160.0^25,29]dotriaconta-3(32),4,6,9(31),10,12,14,22,24,29-decaen-8-yl]acetic acid]	62.2 nM	986 nM	–
Cc1cc2cc(c1)C(CC(=O)O)c1ccc3c(nnn3CCCCOc3ccc4c(c3)CN(C2)S(=O)(=O)O4)c1C (stereo not shown) [Example 5, [5,31-Dimethyl-27,27-dioxo-21,26-dioxa-27λ^6-thia-1,14,15,16-tetraazahexacyclo[20.5.3.1^3,70.1^9,130.0^12,160.0^25,29]dotriaconta-3(32),4,6,9(31),10,12,14,22,24,29-decaen-8-yl]acetic acid]	131 nM	1810 nM	–
Cc1c2ccc3c1nnn3CCCCOc1ccc3c(c1)CN(Cc1cc(ccc1Cl)C2CC(=O)O)S(=O)(=O)O3 (single isomer, unassigned) [Example 9a, [4-Chloro-31-methyl-27,27-dioxo-21,26-dioxa-27λ^6-thia-1,14,15,16-tetraazahexacyclo[20.5.3.1^3,70.1^9,130.0^12,160.0^25,29]dotriaconta-3(32),4,6,9(31),10,12,14,22,24,29-decaen-8-yl]acetic acid]	2.12 nM	–	48.2 nM
Cc1ccc2cc1CN1Cc3cc(cc(F)c3OS1(=O)=O)OCCCCn1nnc3c(C)c(ccc31)C2CC(=O)O (single isomer, unassigned) [Example 17b, [24-Fluoro-4,31-dimethyl-27,27-dioxo-21,26-dioxa-27λ^6-thia-1,14,15,16-tetraazahexacyclo[20.5.3.1^3,70.1^9,130.0^12,160.0^25,29]dotriaconta-3(32),4,6,9(31),10,12,14,22,24,29-decaen-8-yl]acetic acid]	5.55 nM	–	89 nM
COc1cc2cc(c1OC)CN1Cc3cc(ccc3OS1(=O)=O)OCCCCn1nnc3c(C)c(ccc31)C2CC(=O)O (single isomer, unassigned) [Example 35b, [4,5-Dimethoxy-31-methyl-27,27-dioxo-21,26-dioxa-27λ^6-thia-1,14,15,16-tetraazahexacyclo[20.5.3.1^3,70.1^9,130.0^12,160.0^25,29]dotriaconta-3(32),4,6,9(31),10,12,14,22,24,29-decaen-8-yl]acetic acid]	7450 nM	–	> 3160 nM
Cc1ccc2cc1CN1Cc3cc(ccc3OS1(=O)=O)OCCCCn1nnc3c(C)c(ccc31)[C@H]2CC(=O)O [Example 7a, [(8S)-4,31-Dimethyl-27,27-dioxo-21,26-dioxa-27λ^6-thia-1,14,15,16-tetraazahexacyclo[20.5.3.1^3,70.1^9,130.0^12,160.0^25,29]dotriaconta-3(32),4,6,9(31),10,12,14,22,24,29-decaen-8-yl]acetic acid]	1.07 nM	23 nM	–
COc1ccc2cc1CN1Cc3cc(ccc3OS1(=O)=O)OCc1ccccc1OCCCCn1nnc3c(C)c(ccc31)C2CC(=O)O (single isomer, unassigned) [Example 53a, [4-Methoxy-39-methyl-35,35-dioxo-21,29,34-trioxa-35λ^6-thia-1,14,15,16-tetraazaheptacyclo[28.5.3.1^3,70.1^9,130.0^12,160.0^22,270.0^33,37]tetraconta-3(40),4,6,9(39),10,12,14,22,24,26,30,32,37-tridecaen-8-yl]acetic acid]	47.7 nM	–	369 nM
Cc1ccc2cc1CN1Cc3cc(cc(C)c3OS1(=O)=O)OCCCCn1nnc3c(C)c(ccc31)C2CC(=O)O (single isomer, unassigned) [Example 15b, [4,24,31-Trimethyl-27,27-dioxo-21,26-dioxa-27λ^6-thia-1,14,15,16-tetraazahexacyclo[20.5.3.1^3,70.1^9,130.0^12,160.0^25,29]dotriaconta-3(32),4,6,9(31),10,12,14,22,24,29-decaen-8-yl]acetic acid]	4.41 nM	–	381 nM
Cc1ccc2cc1CN1Cc3cc(ccc3OS1(=O)=O)OCCCCn1nnc3c(C)c(cc(Cl)c31)[C@@H]2CC(=O)O [Example 50, [(8R)-11-Chloro-4,31-dimethyl-27,27-dioxo-21,26-dioxa-27λ^6-thia-1,14,15,16-tetraazahexacyclo[20.5.3.1^3,70.1^9,130.0^12,160.0^25,29]dotriaconta-3(32),4,6,9(31),10,12,14,22,24,29-decaen-8-yl]acetic acid]	5.97 nM	139 nM	–
Cc1c2ccc3c1nnn3CCCCOc1ccc3c(c1)CN(Cc1cc(ccc1Cl)C2CC(=O)O)S(=O)(=O)O3 (single isomer, unassigned) [Example 9b, [4-Chloro-31-methyl-27,27-dioxo-21,26-dioxa-27λ^6-thia-1,14,15,16-tetraazahexacyclo[20.5.3.1^3,70.1^9,130.0^12,160.0^25,29]dotriaconta-3(32),4,6,9(31),10,12,14,22,24,29-decaen-8-yl]acetic acid]	9.99 nM	–	845 nM
COc1c(Cl)cc2cc1CN1Cc3cc(ccc3OS1(=O)=O)OCCCCn1nnc3c(C)c(ccc31)C2CC(=O)O (single isomer, unassigned) [Example 37a, [5-Chloro-4-methoxy-31-methyl-27,27-dioxo-21,26-dioxa-27λ^6-thia-1,14,15,16-tetraazahexacyclo[20.5.3.1^3,70.1^9,130.0^12,160.0^25,29]dotriaconta-3(32),4,6,9(31),10,12,14,22,24,29-decaen-8-yl]acetic acid]	75.1 nM	–	1300 nM

— patent US12643912B2, “Macrocyclic compounds, a process for their preparation and pharmaceutical compositions containing them” (LES LABORATOIRES SERVIER, priority 2020, dated 2026)
